The values below come from patent US11091429B2, “Organic compounds” (Givaudan SA, priority 2012, dated 2021).

SMILES strings stand for the structures. “Also recorded” adds a separate entry of the source.

A short description of one assay: Tasting in butter. To be noted: 1 ppm in Blueband butter 82% fat 1.5% salt. On the procedure: (§1) The following formulations were prepared and tasted by trained panelists.
Blueband 82% fat 1.5% salt

Assay [1] can be described thus: Tasting in spreadable cheese. The following applies: 0.5 PPM in spreadable cheese (Eru). Here is the method:
as §1
(§2) Samples were prepared and evaluated by expert tasters. Tasters were asked to describe the samples focusing on authentic taste, mouthfeel, fullness, salty-ness, salivation, umami, sweetness, juiciness, richness, long lastingness and fattiness.
Test on “Eru Prestige” Spreadable Cheese
Base is Eru prestige (market product)
(§3) Samples were prepared and evaluated by expert tasters. Tasters were asked to describe the samples focusing on authentic taste, mouthfeel, fullness, salivation, salty-ness, umami, sweetness, juiciness, richness, long lastingness and fattiness.

A short description of another assay: Tasting in cheese sauce. The following applies: 0.5 PPM in cheese sauce 5% fat 1.6% salt. Here is the method:
as §1
Cheese sauce: 5% fat 1.6% salt
as §3
Cheese Sauce: 5% Fat 1.6% Salt

A short description of another assay: Tasting of baked pizza. The following applies: 0.5 PPM in the crust and 0.5 PPM in the tomato sauce, baked at 200 degrees Celsius. On the procedure:
as §1
Differentiator high temperature 100-250 degrees Celsius in hot air baking process
C18:2 gaba @ 0.5 PPM in the crust and @ 0.5 PPM in the tomato sauce
The pizza was topped off with cheese and baked in a hot air oven @ 200 degrees Celsius

The nature of assay [2]: Tasting on air expanded base. To be noted: 3% fat, cheese seasoning. On the procedure: as §1
An air expanded base (Rice, wheat, Tapioca, potato, salt, sugar, modified starch), containing 3% fat and flavored with cheese seasoning containing salt, MSG, dairy, organic acids, sugars and flavor. The following compounds were added to the base at the indicated levels and the tasting results are reported: […]

Assay [3] in a line: Tasting in strawberry flavoured sugar sweetened yoghurt. To be noted: 2 ppm, 1.5% fat yoghurt, 8% sucrose, strawberry flavour 0.015%. On the procedure: Strawberry Flavoured Sugar Sweetened Yoghurt
In a 1.5% fat yoghurt base, sweetened with 8% sucrose by weight, flavoured with a proprietary strawberry flavour @ 0.015% several different N-acyl aminoacids were added.
as §2
Test in a Strawberry Yoghurt
Base: Yoghurt 1.5% fat yoghurt, 8% sucrose, proprietary strawberry flavour @ 0.015%
(§4) Samples were evaluated by expert tasters. Tasters were asked to describe the samples focusing on authentic taste, mouthfeel, fullness, salivation, salty-ness, umami, sweetness, juiciness, richness, long lastingness and fattiness.

A short description of assay [4]: Tasting in chocolate milk. Here is the method:
Chocolate Milk with Different Fat Content […]
Samples were evaluated by expert tasters. Tasters were asked to describe the samples focusing on authentic taste, mouthfeel, fullness, salivation, sweetness, juiciness, richness, long lastingness and fattiness.

The nature of the next assay: Test on Tang. The following applies: 0.5 ppm, orange flavoured Tang. On the procedure:
In an orange flavoured Tang powdered soft drink (market product) sweetened with sucrose plus high intensity sweetener and containing citric acid, C18:2-gaba and C18:2-pro were tested.
All samples were evaluated by expert tasters. Tasters were asked to describe the samples focusing on authentic taste, mouthfeel & body, enhancement, richness, juiciness, long lastingness, salivation, sweetness, masking off notes of high intensity sweetener
Base is Orange Flavoured Tang

Assay [5] is described as follows: Tasting in mango still beverage, 4% clear mango juice. To be noted: 1 ppm; 4% clear mango juice (30% reduced juice). Here is the method:
Mango Flavoured Still Beverage Containing Different Levels of Juice,
In a Mango flavoured still beverage, sweetened with 8% sucrose and containing 0.1% citric acid and 1%, 4% and 6% clear mango juice flavoured with a proprietary Mango flavour @ 0.05%, C18:2-gaba and C18:2-Pro were added, as such (separate) and in combination.
All samples were evaluated by expert tasters. Tasters were asked to describe the samples focusing on authentic taste, juicy mouthfeel, enhancement, richness, juiciness, long lastingness, salivation, sweetness.
In a Mango flavoured still beverage, sweetened with 8% sucrose & containing 0.1% citric acid and 4% clear mango juice flavoured with Mango flavour @ 0.05%, C18:2-gaba and C18:2-Pro were added, as such (separate) and in combination.
Base is water, 8% sucrose, 0.1% citric acid, 4% clear mango juice (30% reduced juice), flavoured with Mango flavor, dosed at 0.05%

Assay [6] can be described thus: Test on Baileys cream liqueur. The following applies: 1 ppm, 17% alcohol. On the procedure: Test on Baileys Cream Liqueur:
In Baileys cream liqueur (Market Product) containing 17% alcohol, carbohydrates 25% and 13% fat C18:2-gaba was added at 1 ppm.
Samples were evaluated by expert tasters. Tasters were asked to describe the samples focusing on authentic taste, alcohol impact, mouthfeel, fullness, salivation, sweetness, bitterness, richness, long lastingness and fattiness.
Base is Baileys cream liqueur
(§5) Samples were evaluated by expert tasters. Tasters were asked to describe the samples focusing on authentic taste, mouthfeel, fullness, salty-ness, salivation, umami, sweetness, juiciness, richness, long lastingness and fattiness.
Base: Baileys cream liqueur (containing 17% alcohol, carbohydrates 25% and 13% fat)

Another assay can be described thus: Test on Heineken beer. To be noted: 0.5 ppm, 4% alcohol. Here is the method: In Heineken beer (Market Product) containing 4% alcohol C18:2-gaba was added at 0.5 ppm
Samples were evaluated by expert tasters. Tasters were asked to describe the samples focusing on authentic taste, alcohol impact, malt taste, hop taste, mouthfeel, fullness, salivation, sweetness, bitterness, richness, long lastingness and fattiness.
as §5
Base: Heineken beer (containing 4% alcohol)

Assay [7] is described as follows: Test on organic acids in a beverage. To be noted: 1 ppm, water, 7% sucrose. On the procedure:
14—Testing with Beverages Containing Organic Acids from 0.01% to 7%
Test 18:2 Gaba on Organic Acids in a Beverage.
In a solution containing water, 7% sucrose by weight, and different organic acids, 18:2 gaba was added at 1 ppm. We observed taste effects on the acid perception upon addition of 18:2 gaba.
Base is water, 7% Sucrose by weight, Tartaric acid at 0.121% by weight
Base is water, 7% Sucrose by weight, Malic acid at 0.1081% by weight
Base is water, 7% Sucrose by weight, Citric acid at 0.1% by weight
Base is water, 7% Sucrose by weight, Fumaric acid at 0.0936% by weight

A short description of assay [8]: Test in peach flavoured drink. To be noted: 1 ppm; water, 8% sugar, 0.1% citric acid, peach flavour 0.05%. Here is the method:
as §2
Test in Peach Flavoured Drink:
Base is water, 8% sugar, 0.1% citric acid, and proprietary peach flavour at 0.05%
as §5
Comparison in a Peach Drink
Base is water, 8% sugar, 0.1% citric acid, proprietary peach flavour at 0.05%
as §4

Turning to `CCCCC/C=C\C/C=C\CCCCCCCC(=O)NCCCC(=O)O` [C18:2-gaba], the tasting result in “Tasting in butter” is “more authentic butter taste, with more mouthfeel”; in assay [1], “full salty, much more cheese bite, umami, lingering, long lasting”; in assay [1] (listed as C18:2 gaba) it was “Full, Salty, cheese bite, more mature”; in “Tasting in cheese sauce”, “Full, Salty, cheese bite expanding”; in the assay “Tasting of baked pizza” it was “The crust was less dry, more succulent and the tomato was richer, sweeter and the total lingering aftertaste was very rich and pleasant”; in assay [2] (0.5 ppm on air expanded base) it was “Increased dairy, cheese”. The tasting result in [2] (1 ppm on air expanded base) was “Fatty full, cheesy, cheese crust, long lasting, cover base”; in [3], “very creamy and fresh strawberry; also recorded: creamy, fruity authentic strawberry, stronger strawberry, ripe, long lasting, juicy”; in assay [4] (0.5 ppm, chocolate milk 1.8% fat), “stronger cocoa note, more chocolate vs cocoa”; in assay [4] (0.5 ppm, chocolate milk 3% fat), “very creamy, enhanced cocoa note”; in assay [4] (1 ppm, chocolate milk 1.8% fat) it was “very creamy, chocolate, long-lasting creamy and chocolate taste”; in assay [4] (1 ppm, chocolate milk 3% fat) it was “very creamy, lasting, sweet, almost taste like chocolate ice cream”. In addition, the tasting result in “Test on Tang” was “enhances sweet juicy orange notes, enhanced mouthfeel; also recorded: the off-notes of the high intensity sweetener were suppressed”; in assay [5], “fatty skin-like, very juicy, authentic mango, long lasting mango taste, more mouthfeel than the full juice product”; in assay [6], “strongly enhanced alcohol effect, more cocoa, very creamy and long lasting aftertaste”; in “Test on Heineken beer” it was “more hoppy, more bitter, more malt and stronger alcohol impact”; in “Test on Heineken beer” (listed as C18:2 gaba), “more happy, more bitter, more malt and stronger alcohol impact”; in [7] (citric acid 0.1% by weight), “decreased sharp acidic perception, full body mouth feel, higher higher mouthwatering, and an impression of the juicy notes of citrus fruit (orange, lemon)”. Besides, the tasting result in [7] (fumaric acid 0.0936% by weight) was “decreased sharp acidic perception, full body mouthfeel effects, higher sweet effects, and an impression of the full notes characteristic of sweet red & vanillic flavor types (vanilla, chocolate, raspberry, cherry, especially benzaldhyde)”; in assay [7] (malic acid 0.1081% by weight), “decreased sharp acidic perception, give fuller body, mouthfeel, higher mouthwatering, and an impression of the flesh and skin notes of fruit (apple)”; in assay [7] (tartaric acid 0.121% by weight), “decreased sharp acidic perception, full body mouthfeel, higher mouthwatering, more immediate (upfront hit), and an impression of the flesh of fruit (grape, apple, banana, pear-like)”; in assay [8], “fruity peach, long lasting, juicy and fatty skin like very authentic”.
